Source: patent US20140147856A1, “Intestinal Permeability Assay for Neurodegenerative Diseases” (Rush University Medical Center, priority 2012, published 2014)

Assay: Oral sugar intestinal permeability assay (urinary sugar excretion by gas chromatography)
Format: in vivo, human
Conditions: oral sugar mixture with 1 gram sucralose after overnight fast, 24 h urine
Excerpt: In an example of a protocol used to validate the instant invention, patients with clinically diagnosed PD not yet requiring dopaminergic therapy were recruited under a clinical protocol (FIG. 1 and Table 1). […] Constipation was defined as fewer than 3 bowel movements per week or if the subject complained of constipation. Men and women who met United Kingdom Parkinson Disease Research Society brain bank criteria for PD, Hoehn & Yahr stage 1-2.5 were included. Subjects were excluded based on the following: atypical or secondary Parkinsonism, any known organic gastrointestinal disease, use of drugs affecting gastrointestinal motility, anti-inflammatory agents, and chronic diuretic use. Control subjects were of similar age and gender that had no GI or neurological symptoms or signs (determined by examination by a board certified neurologist with expertise in movement disorders) and were not taking regular medication or anti-inflammatory agents.
Subjects fasted overnight and subsequently ingested a sugar mixture containing 2 grams mannitol, 7.5 grams lactulose, 40 grams sucrose, and 1 gram sucralose at 6 AM, then collected 2 sequential 12-hour urine samples. Urine was analyzed for sugar content using gas chromatography (GC) techniques as described herein. […] The final residue is dissolved in 0.5 ml acetone and the sample is ready for analysis. […]

- mean 24 h urinary sucralose (marker of total intestinal permeability) (PD subjects): 1.12±0.1% of oral dose
- mean 24 h urinary sucralose (marker of total intestinal permeability) (age matched controls): 0.58±0.1% of oral dose
Compound: OC[C@H]1O[C@H](O[C@]2(CCl)O[C@H](CCl)[C@@H](O)[C@@H]2O)[C@H](O)[C@@H](O)[C@H]1Cl [sucralose]
